How the values were obtained:
Assay type in all cases: cell-based, human
MCF10A cells = test: EdU incorporation by flow cytometry in MCF10A cells; conditions: 15 nM siRNA, 48 hours posttransfection, 1.5 hours EdU, control SiRNA 29.5%
Procedure: (§1) 4×10^5 MCF10A cells (immortalized, non-transformed epithelial cells derived from human fibrocystic mammary tissue; ATCC CRL-10217) or BT474 cells (Her2^+ human breast cancer cell line) were seeded in growth media (DMEM/F12 (Gibco), 5% horse serum (Invitrogen), […] (Peprotech), 1 mg/ml hydrocortisone (Sigma), […] cholera toxin (Sigma), […] (Sigma), and Pen/Strep (Invitrogen)). After 24 hours, media was changed to antibiotic-free growth medium, and lipofectamine 2000 was used to cotransfect MCF10A cells with either 15 nM Trim62SiRNA (SEQ ID NO: 9; 5′ AAGAAGCAGAGAAGCGCGC-3″ (Integrated DNA Technologies)) and 15 nM siGlow (non-targeting control siRNA labeled with Cy3 (Thermo Scientific)), or 15 nM Trim62scrambled siRNA (SEQ ID NO:10; 5′ GCGAGGACGGACAAA CAGA 3′ (Sigma)) and 15 nM siGlow; for BT474 cells 25 nM siRNA was used. 6 hours post transfection, media was replaced with growth media containing antibiotics, and 48 hours postransfection, MCF10A cell were incubated for 1.5 hours with […] (5-ethynyl-2′-deoxyuridine, an analog of BrdU); for BT474 cells incubation with EdU was for 12 hours. Cells were trypsinized, washed with PBS-1% FBS, and sorted for Cy3 transfection marker using a cell sorter (BD FACSArisII cell sorter). […] The data was collected using a BD FACS Diva software package and analyzed using BD CellQuest Pro Software. […]

BT474 cells = test: EdU incorporation by flow cytometry in BT474 cells; conditions: 25 nM siRNA, 12 hours EdU, Control siRNA 17.5%
Procedure: as §1

MCA10F cells = test: Cell cycle distribution of exponentially growing MCA10F cells (FIG. 9); conditions: sorted on siGLO-FITC
Procedure: FIG. 9 provides an assessment of TRIM62siRNA on the cell cycle of MCA10F exponentially growing cells. The cells were sorted on siGLO-FITC.
as §1, with “hours.” for “hours. Cells were trypsinized, washed with PBS-1% FBS, and sorted for Cy3 transfection marker using a cell sorter (BD FACSArisII cell sorter).”

[1] = system: p27^Kip1 protein levels in UACC893 cells; test: p27^Kip1 Western blot in UACC893 cells with lapatinib and/or TRIM62 siRNA; conditions: UACC893 cells (amplified ErbB2), 0.5 μM lapatinib, siRNA from expression vector, FIG. 7
Procedure: A breast cancer cell line with an amplified ErbB2 gene (UACC893) was transfected with a TRIM62 siRNA expression vector or a vector that expressed a control siRNA. p27^Kip1 levels were assayed by Western blotting using a p27^Kip1 specific antibody. After treatment of the control-transfected cells with 0.5 μM lapatinib, p27^Kip1 levels increased as compared to the untreated cells. Cells transfected with the TRIM62 siRNA also had increased p27^Kip1 levels.
p27^Kip1 protein levels were measured in breast cancer cells with ErbB2 gene amplification after administration of an ErbB2 specific mall organic molecule, lapatinib. p27^Kip1 expression levels were higher after lapatinib was administered. […] The increased levels of p27^Kip1 expression coincided with increased nuclear localization of p27^Kip1. Data not shown.

[2] = system: p27^Kip1 protein levels in UACC893 cells transfected with a TRIM62 expression vector; test: p27^Kip1 Western blot in UACC893 cells overexpressing TRIM62, treated with lapatinib; conditions: UACC893 cells overexpressing TRIM62, 0.5 μM lapatinib, FIG. 8
Procedure: A breast cancer cell line with an amplified ErbB2 gene (UACC893) was transfected with a TRIM62 expression vector or an empty vector. p27^Kip1 levels were assayed by Western blotting using a p27^Kip1 specific antibody. Cells were treated with 0.5 μM lapatinib or buffer.
The effect of overexpression of TRIM62 protein on p27^Kip1 expression was determined in breast cancer cells with ErbB2 gene amplification. […] A breast cancer cell line with an amplified ErbB2 gene (UACC893) was transfected with a TRIM62 expression vector or an empty vector. p27^Kip1 levels were assayed by Western blotting using a p27^Kip1 specific antibody. Cells were treated with 0.5 μM lapatinib or buffer. As compared to an empty vector control, cells that overexpressed TRIM62 had low levels of p27^Kip1 protein expression.

Row | Compound | EdU^+ cells (MCF10A cells) [%] | EdU^+ cells (BT474 cells) [%] | percentage of cells that remain in G1 (MCA10F cells) | p27^Kip1 protein expression levels [1] | expression of p27^Kip1 protein [2]
1 | 5′ AAGAAGCAGAGAAGCGCGC-3″ [T62siRNA] | 11.1 | 9 | higher percentage | – | –
2 | CS(=O)(=O)CCNCc1ccc(-c2ccc3ncnc(Nc4ccc(OCc5cccc(F)c5)c(Cl)c4)c3c2)o1 [lapatinib] | – | – | – | higher | did not result in increased expression
